Laboratory results taken from patent publication US20150105252A1, “SUBSTITUTED PYRAZOLES AS HERBICIDES” (E I DU PONT DE NEMOURS AND COMPANY, priority 2013, published 2015).

How the values were obtained:
Test in all cases: Test F preemergence
[1] = system: Surinam grass; assay type: in vivo, Brachiaria decumbens
Excerpt: (§1) Seeds of plant species selected from corn (Zea mays), soybean (Glycine max), velvetleaf (Abutilon theophrasti), lambsquarters (Chenopodium album), wild poinsettia (Euphorbia heterophylla), pigweed, palmer (palmer pigweed, Amaranthus palmeri), common waterhemp (Amaranthus rudis), surinam grass (Brachiaria decumbens), large crabgrass (Digitaria sanguinalis), crabgrass, Brazil (Brazilian crabgrass, Digitaria horizontalis), fall panicum (Panicum dichotomiflorum), giant foxtail (Setaria faberii), green foxtail (Setaria viridis), goosegrass (Eleusine indica), johnsongrass (Sorghum halepense), common ragweed (Ambrosia elation), barnyardgrass (Echinochloa crus-galli), southern sandbur (Cenchrus echinatus), arrowleaf sida (Sida rhombifolia), Italian ryegrass (Lolium multiflorum), dayflower, VA (Virginia (VA) dayflower, Commelina virginica), field bindweed (Convolvulus arvensis), cocklebur (common cocklebur, Xanthium strumarium), morningglory (Ipomoea coccinea), nightshade (eastern black nightshade, Solanum ptycanthum), kochia (Kochia scoparia), yellow nutsedge (Cyperus esculentus), and hairy beggarticks (Bidens pilosa), were planted into a silt loam soil and treated preemergence with test chemicals formulated in a non-phytotoxic solvent mixture which included a surfactant.
(§2) At the same time, plants from these crop and weed species and also horseweed (Canada horseweed, Conyza canadensis), smartweed (ladysthumb smartweed, Polygonum persicaria), waterhemp_RES1, (ALS & Triazine resistant common waterhemp, Amaranthus rudis), and waterhemp_RES2, (ALS & HPPD resistant common waterhemp, Amaranthus rudis) were treated with postemergence applications of test chemicals formulated in the same manner. Plants ranged in height from 2 to 18 cm for postemergence treatments (1- to 4-leaf stage). Treated plants and controls were maintained in a greenhouse for 14 to 21 days, after which time all species were compared to controls and visually evaluated. Plant response ratings, summarized in Table F, are based on a scale of 0 to 100 where 0 is no effect and 100 is complete control. A dash (-) response means no test result.

[2] = system: common waterhemp; assay type: in vivo, Amaranthus rudis
Excerpt: as §1, §2

[3] = system: giant foxtail; assay type: in vivo, Setaria faberii
Excerpt: as §1, §2

[4] = system: yellow nutsedge; assay type: in vivo, Cyperus esculentus
Excerpt: as §1, §2

[5] = system: green foxtail; assay type: in vivo, Setaria viridis
Excerpt: as §1, §2

[6] = system: field bindweed; assay type: in vivo, Convolvulus arvensis
Excerpt: as §1, §2

[7] = Preemergence, 31 g ai/ha, scale 0 to 100
[8] = Preemergence, 62 g ai/ha, scale 0 to 100
[9] = Preemergence, 125 g ai/ha, scale 0 to 100
[10] = preemergence, 8 g ai/ha, scale 0 to 100, 100 is complete control
[11] = preemergence, 16 g ai/ha, scale 0 to 100, 100 is complete control
[12] = Preemergence, 16 g ai/ha, scale 0 to 100
[13] = Preemergence, 250 g ai/ha, scale 0 to 100

Compound	Plant response rating, Surinam Grass [1, 8]	Plant response rating, Surinam Grass [1, 9]	Plant response rating, Surinam Grass [1, 10]	Plant response rating, Surinam Grass [1, 11]	Plant response rating, Common Waterhemp [2, 8]	Plant response rating, Common Waterhemp [2, 9]	Plant response rating, Common Waterhemp [2, 10]	Plant response rating, Giant Foxtail [3, 8]	Plant response rating, Giant Foxtail [3, 9]	Plant response rating, Giant Foxtail [3, 10]	Plant response rating, Giant Foxtail [3, 11]	Plant response rating, Yellow Nutsedge [4, 8]	Plant response rating, Yellow Nutsedge [4, 9]	Plant response rating, Yellow Nutsedge [4, 10]	Plant response rating, Yellow Nutsedge [4, 11]	Plant response rating, Green Foxtail [5, 8]	Plant response rating, Green Foxtail [5, 9]	Plant response rating, Green Foxtail [5, 10]	Plant response rating, Field Bindweed [6, 8]	Plant response rating, Field Bindweed [6, 9]	other results
CCOc1cc(C(=O)NCC(F)(F)F)nn1Cc1ccnc(C(F)(F)F)c1 [Compound 104]	75	80	0	10	100	100	65	100	100	25	30	60	75	0	0	100	100	5	50	95	Plant response rating, Surinam Grass [1, 7]: 35; Plant response rating, Common Waterhemp [2, 7]: 100; Plant response rating, Common Waterhemp [2, 11]: 98; Plant response rating, Giant Foxtail [3, 7]: 100; Plant response rating, Yellow Nutsedge [4, 7]: 25; Plant response rating, Green Foxtail [5, 7]: 100; Plant response rating, Green Foxtail [5, 11]: 60; Plant response rating, Field Bindweed [6, 7]: 30; Plant response rating, Field Bindweed [6, 10]: 0; Plant response rating, Field Bindweed [6, 11]: 10
CCNC(=O)c1cc(CCCl)n(Cc2ccnc(C(F)(F)F)c2)n1 [Compound 179]	20	60	0	–	25	75	0	40	98	0	–	10	60	0	–	20	70	0	50	75	Plant response rating, Surinam Grass [1, 7]: 20; Plant response rating, Common Waterhemp [2, 7]: 0; Plant response rating, Giant Foxtail [3, 7]: 25; Plant response rating, Yellow Nutsedge [4, 7]: 0; Plant response rating, Green Foxtail [5, 7]: 20; Plant response rating, Field Bindweed [6, 7]: 5; Plant response rating, Field Bindweed [6, 10]: 0
CCNC(=O)c1cc(CC)n(Cc2ccnc(C(F)(F)F)c2)n1 [Compound 196]	25	70	0	0	75	100	0	70	100	0	0	20	50	0	0	75	100	0	75	85	Plant response rating, Common Waterhemp [2, 12]: 50; Plant response rating, Common Waterhemp [2, 11]: 35; Plant response rating, Green Foxtail [5, 11]: 0; Plant response rating, Field Bindweed [6, 12]: 20; Plant response rating, Field Bindweed [6, 10]: 5; Plant response rating, Field Bindweed [6, 11]: 10
Cc1cc(C(=O)NC(C)C)nn1Cc1ccnc(C(F)(F)F)c1 [Compound 197]	20	20	0	0	65	85	20	20	100	0	0	5	25	0	0	35	65	0	50	80	Plant response rating, Common Waterhemp [2, 12]: 65; Plant response rating, Common Waterhemp [2, 11]: 60; Plant response rating, Green Foxtail [5, 11]: 0; Plant response rating, Field Bindweed [6, 12]: 35; Plant response rating, Field Bindweed [6, 10]: 10; Plant response rating, Field Bindweed [6, 11]: 15
CCc1cc(C(=O)NC2CC2)nn1Cc1ccnc(OCC(F)(F)F)c1 [Compound 200]	5	65	–	0	20	100	–	0	5	–	0	0	25	–	0	5	60	–	0	50	Plant response rating, Surinam Grass [1, 13]: 95; Plant response rating, Common Waterhemp [2, 13]: 100; Plant response rating, Common Waterhemp [2, 12]: 0; Plant response rating, Giant Foxtail [3, 13]: 40; Plant response rating, Yellow Nutsedge [4, 13]: 35; Plant response rating, Green Foxtail [5, 13]: 85; Plant response rating, Green Foxtail [5, 11]: 0; Plant response rating, Field Bindweed [6, 13]: 60; Plant response rating, Field Bindweed [6, 12]: 0; Plant response rating, Field Bindweed [6, 11]: 0
